What was measured:
GCGR [1] = target: GCGR (Homo sapiens, UniProt P47871, W215A); assay: Whole-cell binding assay, competition with 125I-GCG; set-up: V5 (C); 6×His (C); expressed in transfected cells; host or cells: CHO-K1; details: GCGR W215A, CHO-K1
In short: (§1)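 CHO-K1 cells transiently transfected with WT or mutant receptor constructs, washed in F-12 with 0.1% BSA or casein/33 mM HEPES and incubated 2 h at 37 °C. Bound radioactivity counted after Triton lysis; data normalized to WT and fitted to a three-parameter logistic equation.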

GCGR [2] = target: GCGR (Homo sapiens, UniProt P47871, D195A); assay: as above; set-up: V5 (C); 6×His (C); expressed in transfected cells; host or cells: CHO-K1; details: GCGR D195A; CHO-K1; read-out: binding pIC50 (converted)
Sequence of GCGR (Homo sapiens, UniProt P47871, D195A) (P47871 26-477 D195A): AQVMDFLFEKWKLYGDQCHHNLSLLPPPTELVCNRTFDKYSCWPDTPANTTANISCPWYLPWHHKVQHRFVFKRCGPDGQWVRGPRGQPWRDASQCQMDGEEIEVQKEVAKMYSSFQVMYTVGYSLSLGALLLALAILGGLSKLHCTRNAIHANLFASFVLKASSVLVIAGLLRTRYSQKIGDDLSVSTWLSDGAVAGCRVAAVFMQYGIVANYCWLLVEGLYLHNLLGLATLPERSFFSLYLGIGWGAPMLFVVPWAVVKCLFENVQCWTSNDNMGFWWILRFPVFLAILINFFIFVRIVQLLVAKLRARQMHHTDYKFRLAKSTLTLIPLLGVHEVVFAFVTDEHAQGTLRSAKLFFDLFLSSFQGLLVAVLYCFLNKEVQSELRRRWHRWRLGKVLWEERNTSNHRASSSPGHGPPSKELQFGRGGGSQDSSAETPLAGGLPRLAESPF
In short: as §1

GCGR [3] = target: GCGR (Homo sapiens, UniProt P47871, Q131A); assay: as above; set-up: V5 (C); 6×His (C); expressed in transfected cells; host or cells: CHO-K1; details: GCGR Q131A, CHO-K1
Sequence of GCGR (Homo sapiens, UniProt P47871, Q131A) (P47871 26-477 Q131A): as the sequence (P47871 26-477 D195A) above, with Q106A, A170D counted along it
In short: as §1

GCGR [4] = target: GCGR (Homo sapiens, UniProt P47871, Y138A); assay: as above; set-up: V5 (C); 6×His (C); expressed in transfected cells; host or cells: CHO-K1; details: GCGR Y138A, CHO-K1
Sequence of GCGR (Homo sapiens, UniProt P47871, Y138A) (P47871 26-477 Y138A): as the sequence (P47871 26-477 D195A) above, with Y113A, A170D counted along it
In short: as §1

GLP-1R [5] = target: GLP-1R (Homo sapiens, UniProt P43220, D198A/K202A/Y145A); assay: cAMP accumulation assay, GLP-1R WT, mutant or modified constructs; type: cell-based; set-up: Flag; expressed in transfected cells; host or cells: HEK293T; details: GLP-1R Y145A/D198A/K202A, HEK293T
Sequence of GLP-1R (Homo sapiens, UniProt P43220, D198A/K202A/Y145A) (P43220 24-463 Y145A/D198A/K202A): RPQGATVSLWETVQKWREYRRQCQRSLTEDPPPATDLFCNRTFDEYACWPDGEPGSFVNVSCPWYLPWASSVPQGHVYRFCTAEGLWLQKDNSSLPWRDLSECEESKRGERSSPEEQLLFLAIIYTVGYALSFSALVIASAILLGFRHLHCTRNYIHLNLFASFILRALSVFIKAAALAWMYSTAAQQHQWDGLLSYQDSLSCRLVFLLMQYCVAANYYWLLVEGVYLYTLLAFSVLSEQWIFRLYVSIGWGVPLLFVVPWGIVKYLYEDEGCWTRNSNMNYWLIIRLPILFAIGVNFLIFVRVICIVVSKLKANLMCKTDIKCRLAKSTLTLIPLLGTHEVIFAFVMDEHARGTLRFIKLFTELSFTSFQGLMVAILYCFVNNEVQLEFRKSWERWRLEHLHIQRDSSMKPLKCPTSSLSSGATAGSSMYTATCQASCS
In short: (§2)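 HEK293T cells transiently expressing wild-type, mutant or modified human GLP-1R (HA signal peptide constructs) were used. Cells were stimulated with peptide agonists for 40 min at room temperature in HBSS with 0.5 mM IBMX and 0.1% BSA or casein. cAMP was quantified by LANCE Ultra TR-FRET (620/650 nm).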

GLP-1R [6] = target: GLP-1R (Homo sapiens, UniProt P43220, R134A); assay: as above; type: cell-based; set-up: Flag; expressed in transfected cells; host or cells: HEK293T; details: GLP-1R R134A, HEK293T
Sequence of GLP-1R (Homo sapiens, UniProt P43220, R134A) (P43220 24-463 R134A): as the sequence (P43220 24-463 Y145A/D198A/K202A) above, with R111A, A122Y, A175D, A179K counted along it
In short: as §2

GLP-1R [7] = target: GLP-1R (Homo sapiens, UniProt P43220, K202A); assay: as above; type: cell-based; set-up: Flag; expressed in transfected cells; host or cells: HEK293T; details: GLP-1R K202A, HEK293T
Sequence of GLP-1R (Homo sapiens, UniProt P43220, K202A) (P43220 24-463 K202A): as the sequence (P43220 24-463 Y145A/D198A/K202A) above, with A122Y, A175D counted along it
In short: as §2

GLP-1R [8] = target: GLP-1R (Homo sapiens, UniProt P43220, Y205A); assay: as above; type: cell-based; set-up: Flag; expressed in transfected cells; host or cells: HEK293T; details: GLP-1R Y205A, HEK293T
Sequence of GLP-1R (Homo sapiens, UniProt P43220, Y205A) (P43220 24-463 Y205A): as the sequence (P43220 24-463 Y145A/D198A/K202A) above, with A122Y, A175D, A179K, Y182A counted along it
In short: as §2

GLP-1R [9] = target: GLP-1R (Homo sapiens, UniProt P43220, W39A); assay: as above; type: cell-based; set-up: Flag; expressed in transfected cells; host or cells: HEK293T; details: HEK-293T, GLP-1R W39A; HEK293T
Sequence of GLP-1R (Homo sapiens, UniProt P43220, W39A) (P43220 24-463 W39A): as the sequence (P43220 24-463 Y145A/D198A/K202A) above, with W16A, A122Y, A175D, A179K counted along it
In short: as §2

[10] = read-out: binding pIC50 (converted)
[11] = read-out: cAMP pEC50 (converted)

Sequence of GCGR (Homo sapiens, UniProt P47871, W215A) (P47871 26-477 W215A): as the sequence (P47871 26-477 D195A) above, with A170D, W190A counted along it

## CCCCCCCCCCCCCCCC(=O)N[C@@H](CCC(=O)NCCCC[C@H](NC(=O)[C@H](CC(=O)O)NC(=O)[C@H](CO)NC(=O)[C@@H](NC(=O)[C@H](Cc1ccccc1)NC(=O)[C@@H](NC(=O)CNC(=O)[C@H](CCC(N)=O)NC(=O)C(C)(C)NC(=O)[C@@H](N)Cc1c[nH]cn1)[C@@H](C)O)[C@@H](C)O)C(=O)N[C@@H](CO)C(=O)N[C@@H](CCCCN)C(=O)N[C@@H](Cc1ccc(O)cc1)C(=O)N[C@@H](CC(C)C)C(=O)N[C@@H](CC(=O)O)C(=O)N[C@@H](CCC(=O)O)C(=O)N[C@@H](CCCNC(=N)N)C(=O)N[C@@H](C)C(=O)N[C@@H](C)C(=O)N[C@@H](CCC(N)=O)C(=O)N[C@@H](CC(=O)O)C(=O)N[C@@H](Cc1ccccc1)C(=O)N[C@H](C(=O)N[C@@H](CCC(N)=O)C(=O)N[C@@H](Cc1c[nH]c2ccccc12)C(=O)N[C@@H](CC(C)C)C(=O)N[C@@H](CC(C)C)C(=O)N[C@@H](CC(=O)O)C(=O)NCC(=O)NCC(=O)N1CCC[C@H]1C(=O)N[C@@H](CO)C(=O)N[C@@H](CO)C(=O)NCC(=O)N[C@@H](C)C(=O)N1CCC[C@H]1C(=O)N1CCC[C@H]1C(=O)N1CCC[C@H]1C(=O)N[C@@H](CO)C(N)=O)C(C)C)C(=O)O [Peptide 20]
GCGR [1]
  binding Span: 7.72 ± 2.74 % WT
GCGR [1]; [10]
  IC50: 145 nM
GCGR [2]
  IC50: 25.7 nM
GCGR [3]
  binding Span: 32.87 ± 3.34 % WT
GCGR [3]; [10]
  IC50: 69.2 nM
GCGR [4]
  binding Span: 2.08 ± 2.48 % WT
GCGR [4]; [10]
  IC50: 1.15 nM
GLP-1R [5]; [11]
  EC50: 0.0389 nM
GLP-1R [5]; HEK-293T
  Emax: 99.9 ± 1.67%
GLP-1R [6]; [11]
  EC50: 0.00661 nM
GLP-1R [6]; HEK-293T
  Emax: 101 ± 1.08%
GLP-1R [7]; [11]
  EC50: 0.00257 nM
GLP-1R [7]; HEK-293T
  Emax: 100 ± 1.97%
GLP-1R [8]; [11]
  EC50: 0.00851 nM
GLP-1R [8]; HEK-293T
  Emax: 101 ± 1.08%
GLP-1R [9]
  Emax: 100 ± 1.04%

From publication PMC8881610 (Nature Communications, 2022)
